Laboratory results from the supplement of paper PMC7600603.

Assays:
DLD1 NRF2-GOF [1] = settings: 72 h; CellTiter-Glo viability
Method in brief: (§1)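 DLD1 colorectal cancer cells, an isogenic pair either NRF2 wild-type or carrying a CRISPR gain-of-function, were cultured in DMEM with 10% FBS and treated in 384-well plates with library compounds at 5 concentrations across a 10,000-fold range. CellTiter-Glo viability was read on a Pherastar FS reader after 72 h and normalised to vehicle wells and 100-μM positive-control wells. Four-parameter logistic dose-response fits were applied. EC50 and drug sensitivity score, a normalised area under the curve, were taken from these fits.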

DLD1 NRF2-WT [2] = settings: 72 h; CellTiter-Glo viability
Method in brief: as §1

DLD1 NRF2-GOF [3] = test: TC50 cytotoxicity; higher = less toxic; settings: 72 h; CellTox Green cytotoxicity
Method in brief: (§2)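 Isogenic DLD1 colorectal cancer cells, either NRF2 wild-type or CRISPR gain-of-function, were grown in DMEM with 10% FBS. They were exposed in 384-well plates to library compounds at 5 concentrations spanning a 10,000-fold range. After 72 h, cytotoxicity was read by CellTox Green on a Pherastar FS reader and normalised to vehicle wells and 100-μM positive-control wells. TC50 and drug sensitivity score (a normalised area under the curve) came from logistic dose-response fits.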

DLD1 NRF2-WT [4] = test: TC50 cytotoxicity; higher = less toxic; settings: 72 h; CellTox Green cytotoxicity
Method in brief: as §2

DLD1 NRF2-GOF [5] = test: drug sensitivity score (DSS) cytotoxicity (DSS score); higher = more toxic; extreme values may be limits of the assay; settings: 72 h; CellTox Green cytotoxicity
Method in brief: as §2

DLD1 NRF2-WT [6] = test: as above; settings: 72 h; CellTox Green cytotoxicity
Method in brief: as §2

DLD1 NRF2-GOF [7] = test: drug sensitivity score (DSS) viability (DSS score); higher = more sensitive; extreme values may be limits of the assay; settings: 72 h; CellTiter-Glo viability
Method in brief: as §1

DLD1 NRF2-WT [8] = test: as above; settings: 72 h; CellTiter-Glo viability
Method in brief: as §1

Row | SMILES | EC50 viability (DLD1 NRF2-GOF [1]) [nM] | EC50 viability (DLD1 NRF2-WT [2]) [nM] | TC50 cytotoxicity (DLD1 NRF2-GOF [3]) [µM] | TC50 cytotoxicity (DLD1 NRF2-WT [4]) [µM] | drug sensitivity score (DLD1 NRF2-GOF [5]) | drug sensitivity score (DLD1 NRF2-WT [6]) | drug sensitivity score (DLD1 NRF2-GOF [7]) | drug sensitivity score (DLD1 NRF2-WT [8])
1 | Nc1ncnc2c1c(-c1cccc(OCc3ccccc3)c1)cn2[C@H]1C[C@@H](CN2CCC2)C1 [NVP-AEW541] | 3120 | 1770 | > 10 | > 10 | 1.5 | 0.1 | 5 | 6.8
2 | Cc1ccc(NC(=O)c2ccc(CN3CCN(C)CC3)cc2)cc1Nc1nc(-c2cccnc2)cs1 [Masitinib] | 163 | 1800 | > 10 | > 10 | 0 | 0 | 14.3 | 6.7
3 | C[C@]1(c2nc3c(C(N)=O)cccc3[nH]2)CCCN1 [Veliparib] | > 10000 | 1570 | > 10 | > 10 | 0 | 0 | 0 | 2.9
4 | Cc1cnc(NC(=O)Nc2cc(Br)c(C)cc2OC[C@@H]2CNCCO2)cn1 [Rabusertib] | > 1000 | > 1000 | > 1 | > 1 | 0 | 0 | 1 | 0.3
5 | C=CCn1c(=O)c2cnc(Nc3ccc(N4CCN(C)CC4)cc3)nc2n1-c1cccc(C(C)(C)O)n1 [AZD1775] | 143 | 353 | 0.171 | 1 | 6.1 | 5.7 | 16.9 | 14.5
6 | CC(C)c1cc(-c2n[nH]c(=O)n2-c2ccc3c(ccn3C)c2)c(O)cc1O [Ganetespib] | 22.8 | 26.6 | > 1 | > 1 | 0 | 0 | 18.4 | 17.9
7 | CC(=O)c1c(C)c2cnc(Nc3ccc(N4CCNCC4)cn3)nc2n(C2CCCC2)c1=O [Palbociclib] | 1490 | 315 | > 10 | > 10 | 0 | 0.2 | 6.7 | 12.3
8 | COCC1(CO)C(=O)C2CCN1CC2 (configuration not stated) [APR-246] | > 10000 | > 10000 | > 10 | > 10 | 0 | 0 | 0 | 4.5
9 | CCCCC(=O)OCC(=O)[C@]1(O)Cc2c(O)c3c(c(O)c2[C@@H](O[C@H]2C[C@H](NC(=O)C(F)(F)F)[C@H](O)[C@H](C)O2)C1)C(=O)c1c(OC)cccc1C3=O [Valrubicin] | 479 | 547 | > 5 | > 5 | 0 | 0 | 8.1 | 6.8
10 | CC(C)(C)Cn1c(N)nc2ccc(-c3[nH]c(C(C)(C)C)nc3-c3ccc(F)cc3)nc21 [Ralimetinib] | 2830 | 1940 | > 10 | > 10 | 0 | 0 | 2.9 | 4.3
11 | CNC(=O)c1ccc(N2C(=S)N(c3ccc(C#N)c(C(F)(F)F)c3)C(=O)C2(C)C)cc1F [Enzalutamide] | > 10000 | > 10000 | > 10 | > 10 | 0 | 0 | 0.1 | 0.5
12 | CC(C)(C)C[C@@H]1N[C@@H](C(=O)N[C@H]2CC[C@H](O)CC2)[C@H](c2cccc(Cl)c2F)[C@]12C(=O)Nc1cc(Cl)ccc12 | 3610 | 1930 | > 10 | > 10 | 0 | 0 | 1.5 | 4.4
13 | O=C(NC[C@H](O)CN1CCc2ccccc2C1)c1cc(NC2COC2)ncn1 | > 10000 | > 10000 | > 10 | > 10 | 0 | 0 | 2.4 | 3
14 | CCCS(=O)(=O)Nc1ccc(F)c(C(=O)c2c[nH]c3ncc(-c4ccc(Cl)cc4)cc23)c1F [Vemurafenib] | > 10000 | > 10000 | > 10 | > 10 | 0 | 0 | 0 | 0.2
15 | COc1ccccc1S(=O)(=O)Nc1ccc2c(c1)CN(C)C(=O)N2 [PFI-1] | > 30000 | 1940 | > 30 | > 30 | 0 | 0 | 0 | 3.2
16 | O=C(Nc1ccc(OC(F)(F)Cl)cc1)c1cnc(N2CC[C@@H](O)C2)c(-c2cc[nH]n2)c1 [NVP-ABL001] | > 1000 | > 1000 | > 1 | > 1 | 0 | 0 | 2.3 | 0.1
17 | C=C1C[C@@H]2[C@H](CC[C@]3(C)C(=O)CC[C@@H]23)[C@@]2(C)C=CC(=O)C=C12 [Exemestane] | > 10000 | > 10000 | > 10 | > 10 | 0 | 0 | 0.9 | 0.1
18 | CC(C)(C)c1cnc(CSc2cnc(NC(=O)C3CCNCC3)s2)o1 [SNS-032] | 223 | 98.4 | > 10 | > 10 | 0 | 0.8 | 17.5 | 23.1
19 | CON(C)C(=O)N1N=C(c2cc(F)ccc2F)S[C@@]1(CCCN)c1ccccc1 [Filanesib] | 4.6 | 6.4 | > 1 | > 1 | 6.2 | 5.3 | 18.6 | 21.5
20 | Cc1cccc(-c2[nH]c(CNc3ccccc3F)nc2-c2ccc3ncnn3c2)n1 [TEW-7197] | > 2500 | > 2500 | > 2.5 | > 2.5 | 0 | 0 | 1.7 | 0
21 | C[C@H]1Oc2cc(cnc2N)-c2c(nn(C)c2C#N)CN(C)C(=O)c2ccc(F)cc21 | > 1000 | > 1000 | > 1 | > 1 | 0 | 0 | 1.6 | 0
22 | Oc1ccc2c(c1)CC[C@H](c1ccccc1)[C@@H]2c1ccc(OCCN2CCCC2)cc1 [Lasofoxifene] | > 1000 | > 1000 | > 1 | > 1 | 0 | 0 | 0 | 0

Row | SMILES | EC50 viability (DLD1 NRF2-GOF [1]) [nM] | EC50 viability (DLD1 NRF2-WT [2]) [nM] | TC50 cytotoxicity (DLD1 NRF2-GOF [3]) [µM] | TC50 cytotoxicity (DLD1 NRF2-WT [4]) [µM] | drug sensitivity score (DLD1 NRF2-GOF [5]) | drug sensitivity score (DLD1 NRF2-WT [6]) | drug sensitivity score (DLD1 NRF2-GOF [7]) | drug sensitivity score (DLD1 NRF2-WT [8])
23 | Cc1ncc(-c2ccnc(Nc3ccc(S(C)(=O)=O)cc3)n2)n1C(C)C [AZD-5438] | 1440 | 1020 | > 10 | > 10 | 1.9 | 0.5 | 8.7 | 10.8
24 | CNc1ncc2cc(-c3cc(NC(=O)NCCC(C)(C)C)c(F)cc3C)c(C)nc2n1 | 718 | 496 | > 10 | > 10 | 0 | 0 | 6.4 | 9.9
25 | Nc1nc(F)nc2c1ncn2[C@@H]1O[C@H](CO)[C@@H](O)[C@@H]1O [Fludarabine] | > 10000 | > 10000 | > 10 | > 10 | 0 | 0 | 0 | 0.1
26 | Cc1cc(-c2nc(-c3ccc(OC(F)(F)F)cc3)no2)nn1Cc1ccnc(N2CCN(C3CC3)CC2)c1 [BAY 87-2243] | > 1000 | 0.9 | > 1 | > 1 | 0 | 0 | 1.7 | 16.2
27 | CNC(=O)c1ccc(-c2cnc3ncc(Cc4ccc5ncccc5c4)n3n2)cc1F [Capmatinib] | > 1000 | > 1000 | > 1 | > 1 | 0 | 0 | 0 | 0
28 | CC[C@H](CC#N)OC(=O)N[C@@H](C)c1cccc(NC(=O)Nc2ccc(-c3cnco3)c(OC)c2)c1 [AVN944] | 112 | 169 | > 10 | > 10 | 0 | 0 | 15.9 | 15.6
29 | CC[C@@H]1CN(C(=O)NCC(F)(F)F)C[C@@H]1c1cnc2cnc3[nH]ccc3n12 [Upadacitinib] | 10.1 | > 10000 | > 10 | > 10 | 0 | 0 | 10.7 | 0
30 | Cc1cc(Nc2ncc(Cl)c(Nc3ccccc3S(=O)(=O)C(C)C)n2)c(OC(C)C)cc1C1CCNCC1 [Ceritinib] | 728 | 546 | > 2.5 | > 2.5 | 0 | 0 | 4.2 | 5.2
31 | COC(=O)N[C@@H](C)CNc1nccc(-c2cn(C(C)C)nc2-c2cc(Cl)cc(NS(C)(=O)=O)c2F)n1 [Encorafenib] | 387 | 412 | > 1 | > 1 | 0 | 0 | 1.3 | 1.1
32 | CC(C)[C@H](C(=O)Nc1ccc(C(=O)NO)cc1)c1ccccc1 [AR-42] | 1730 | 1260 | > 10 | 1.97 | 0 | 4 | 5.7 | 9.4
33 | COc1c(OCCCN2CCOCC2)ccc2c1N=C(NC(=O)c1cnc(N)nc1)N1CCN=C21 [Copanlisib] | 199 | 66.4 | > 1 | > 1 | 0 | 0.8 | 2.9 | 8.1
34 | Nc1nc(Cl)nc2c1ncn2[C@@H]1O[C@H](CO)[C@@H](O)[C@@H]1F [Clofarabine] | 171 | 166 | > 10 | > 10 | 0 | 0 | 13.2 | 11.8
35 | Cn1cc(C[C@@H](N)C(=O)O)c2ccccc21 [1-methyl-D-tryptophan] | 552 | 874 | > 5 | > 5 | 0 | 0 | 3.2 | 2.3
36 | Cc1ccc(=O)n(-c2ccccc2)c1 [Pirfenidone] | > 10000 | > 10000 | > 10 | > 10 | 0 | 0 | 0 | 0
37 | CC(C)Nc1cc(-c2c[nH]c(C(=O)N[C@H](CO)c3cccc(Cl)c3)c2)c(Cl)cn1 [Ulixertinib] | 1140 | 1470 | > 10 | > 10 | 0 | 0 | 6.3 | 6.1
38 | CCc1cnn2c(NCc3ccc[n+]([O-])c3)cc(N3CCCC[C@H]3CCO)nc12 [Dinaciclib] | 9.6 | 3.4 | > 1 | > 1 | 0 | 3.3 | 21 | 27.5
39 | Cc1ccc(Nc2nccc(N(C)c3ccc4c(C)n(C)nc4c3)n2)cc1S(N)(=O)=O [Pazopanib] | 44.4 | 53.1 | > 10 | > 10 | 0 | 0 | 10.2 | 6.9
40 | O=C(Nc1cc(Cl)cc2c1[nH]c1cnccc12)c1cccnc1 [PS-1145] | 1340 | 771 | > 25 | > 25 | 0 | 0 | 5.2 | 6.2
41 | Nc1ccn([C@@H]2O[C@H](CO)[C@@H](O)[C@@H]2O)c(=O)n1 [Cytarabine] | 477 | 650 | > 10 | > 10 | 0 | 0 | 6.5 | 5
42 | CN1CCC(COc2cnc(-c3cccc(Cn4nc(-c5cccc(C#N)c5)ccc4=O)c3)nc2)CC1 [Tepotinib] | > 1000 | > 1000 | > 1 | > 1 | 0 | 0 | 0 | 0
43 | O=c1[nH]c(=O)n([C@H]2C[C@H](O)[C@@H](CO)O2)cc1C(F)(F)F [Trifluridine] | 2510 | > 10000 | > 10 | > 10 | 0 | 0 | 2.2 | 0
44 | Nc1ccccc1NC(=O)c1ccc(CNC(=O)OCc2cccnc2)cc1 [Entinostat] | > 10000 | > 10000 | > 10 | > 10 | 0 | 0 | 0 | 0
